Results as given in patent US20250092001A1, “NOVEL EXCITATORY AMINO ACID GLUTAMATE TRANSPORT MODULATORS AND METHODS USING THE SAME” (Drexel University, priority 2022, published 2025).

How the values were obtained:
[1] = tested on: R6/2 mice (Huntington disease model); assay: Open field locomotion test; type: in vivo, mouse; conditions: GTS467 2, 4, and 10 mg/kg
Procedure: FIG. 9A depicts the results of a locomotion test. In the locomotion test of FIG. 9A, wildtype and R6/2 mice treated with vehicle or different doses of GTS467 (2, 4, and 10 mg/kg) or ceftriaxone (200 mg/kg) were subjected to the open field test to evaluate their locomotor abilities in a 44×44 cm and 43×43 cm square open field arena. Animals were placed individually in the open field arena and behavior was recorded for a period of 5 minutes under dim light and low noise conditions. Animal behavior was recorded using an overhead camera and the distance moved was recorded and quantified using the Noldus ethovision XT-14 software. FIG. 9B depicts the results of a memory task test. Referring to FIG. 9B, to test for memory impairment a novel object recognition assay was performed. A 44×44 cm square shaped open field arena was used to perform this test at week 12 and week 15. The behavioral evaluation was performed in 2 sets, each set having equal number of animals. […] The behavior was recorded under dim light and low noise conditions using an overhead camera. Cumulative duration with both the objects, total object exploration (sec), distance travelled (cm) was quantified using the Noldus ethovision XT 14 software. […]

[2] = tested on: Drosophila model of Huntington's disease; assay: Larval olfactory associative learning test; type: in vivo; conditions: Elav x Htt larvae; 3.53 nM GT467, […] GT511
Procedure: FIG. 7A illustrates certain aspects of a larval olfactory associative learning used to test learning and memory. In FIG. 7A, larvae were trained with either a reinforcer solution containing sucrose (“LIN/SUC”) or a control of distilled water (“LIN/DW”). The trained larvae were then transferred to a dish having test odorant placed on one side and a control on the opposite side. […] The ΔRI (difference between LIN/SUC and LIN/DW performance scores) were then calculated for the high performers (FIG. 7B), low performers (FIG. 7C) and non-performers (FIG. 7D). […] Referring to FIG. 7A, Drosophila larvae were trained with either a reinforcer solution containing sucrose (“LIN/SUC”) or a control of distilled water (“LIN/DW”). The trained larvae were then transferred to a dish having test odorant placed on one side and a control on the opposite side. The ΔRI were then calculated for the high performers (FIG. 7B), low performers (FIG. 7C) and non-performers (FIG. 7D).

[3] = tested on: PD rats; assay: Elevated plus maze (EPM); type: in vivo, rat; conditions: male PD rats; 4 mg/kg; 10 min post treatment
Procedure: Referring to FIGS. 11-13, in the elevated plus maze test, male PD rats were treated with either saline or GTS467 (4 mg/kg). 10 min post treatment, the rats were placed in the middle of the elevated plus maze (EPM). Time spent in closed and open arms were recorded for 5 min. Frequency of entries in open and close arms was recorded.

Anxiety (time spent in open vs. closed arm of EPM) [3]: did not induce anxiety
Structure (SMILES): COc1ccc(NC(=O)C(=O)NCC(c2ccccc2)N2CCN(C)CC2)cc1 (stereo not drawn) [GT467, N1-(4-methoxyphenyl)-N2-(2-(4-methylpiperazin-1-yl)-2-phenylethyl)oxalamide]
Distance moved [1]: significantly increased
Olfactory learning performance (ΔRI) [2]: improved significantly
